{
  "source": "paper PMC8780964",
  "about": "“Evaluation of the Pharmacokinetics of the Pancreastatin Inhibitor PSTi8 Peptide in Rats: Integration of In Vitro and In Vivo Findings” (Molecules, 2022)",
  "test": "Microsomal metabolic stability study",
  "type": "in vitro ADME, SD rats",
  "details": "25 µM, RLM",
  "description": "RLM was prepared from SD rats from our lab, as previously reported. In vitro metabolic stability of PSTi8 was determined using RLM. The reaction milieu was prepared by adding 50 mM Tris buffer (pH 7.4), 40 mM MgCl2 pre-incubated at 37 °C along with RLM (0.5 mg/mL) and spiked at a concentration (5 µM) of PSTi8. The reaction was started with NADPH (1 mM) and without NADPH (negative control using Tris buffer). A total of 100 µL samples were collected at 0, 5, 15, 30, 45 and 60 min, and the reaction was quenched with liquid nitrogen. Samples were processed with the SPE procedure and analyzed using the LC-MS/MS method. Negative control was used to assess the peptide stability in the reaction milieu and the positive control (Testosterone, 25 µM) was incubated to obtain the microsomal activity.",
  "data": [
    {"smiles": "C[C@]12CC[C@H]3[C@@H](CCC4=CC(=O)CC[C@@]43C)[C@@H]1CC[C@@H]2O", "note": "[testosterone, reference compound]", "values": [
      {"measurement": "half-life of positive control", "result": "within the acceptable in-house limits"}
    ]}
  ]
}
